Experiment [1] addresses T1, recombinant human TRβ (Homo sapiens, UniProt P10828).
T1 sequence (P10828 244-461): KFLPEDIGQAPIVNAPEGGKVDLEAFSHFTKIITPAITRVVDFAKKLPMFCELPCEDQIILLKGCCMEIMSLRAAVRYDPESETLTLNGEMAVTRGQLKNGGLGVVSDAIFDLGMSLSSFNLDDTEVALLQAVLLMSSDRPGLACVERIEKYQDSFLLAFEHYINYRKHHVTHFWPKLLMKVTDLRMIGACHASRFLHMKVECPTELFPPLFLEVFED
Description: biochemical. Conditions: TR[…] (IC50, nM), displacement of 125I-T3 (0.16 nM). The text has this: (§1) Thyroid Hormone Receptor Binding Test
(§2) (1) Preparation of Fused Protein Having Ligand Binding Region of Thyroid Hormone Receptor
(§3) Human TRα and human TRβ ligand binding domains were expressed in Escherichia coli as a fused protein (recombinant human TRα or recombinant human TRβ) having TRα and TRβ ligand binding domains at a C-terminus of His-Patch Thioredoxin using the His-Patch Thioredoxin fusing protein expressing system (Invitrogen).
(§4) A nucleotide sequence of a region corresponding to the fused protein was confirmed by DNA sequence analysis.
(§5) Escherichia coli by which the fused protein had been subjected to expression inducement were collected by a centrifugation method, and ground using ultrasound to prepare a ground cell liquid containing the fused protein. The ground cell liquid was centrifuged at 15000 rpm for about 30 minutes, and a solution containing the fused protein from the supernatant using a nickel chelating column was obtained. An NAP-10 column was replaced with a binding solution (20 mM, Tris-HCl, 0.15 M NaCl, 8% Glycerol, 0.1% BSA, 1 mM EDTA, 10 mM 2-melcaptethanol). The resulting binding solution containing the fused protein was frozen and stored at −70° C. or lower.
(§6) (2) Binding Affinity for Thyroid Hormone Receptor
(§7) This binding solution (60 μL) was added to all wells of a 96-well plate (MILLIPORE MultiScreen-HV, Cat. No. MANVN4550, Lot. No. F4SN86613). […] 80 μL of SephadexG25 was added to each well of MultiScreen-HV (MILLIPORE, Cat. No. MANVN4550, Lot. No. F4SN86613), the binding solution was added to sufficiently swell, and this was centrifuged at 600×g for 1 minute to prepare a column of SephadexG25. […] Again, 25 μL untreated binding solution was overlaid on the SephadexG25 column, and this was immediately centrifuged at 600×g for 1 minute. […] As an amount of recombinant human TRα or recombinant human TRβ used in the present test, an amount by which proper radioactivity is obtained in a range where an addition amount of the receptor and an amount of the complex in the above test system, was used.
(§8) This was divided by the total complex amount to calculate a binding rate as the following equation:
(§9) Binding rate=remaining complex amount/total complex amount
Background: Displacement assays read how much labelled ligand stays bound in the presence of the test substance.

Experiment [2] has as its target T2, recombinant human TRα (Homo sapiens, UniProt P10827).
T2 sequence (P10827 190-410 isoform P10827-2): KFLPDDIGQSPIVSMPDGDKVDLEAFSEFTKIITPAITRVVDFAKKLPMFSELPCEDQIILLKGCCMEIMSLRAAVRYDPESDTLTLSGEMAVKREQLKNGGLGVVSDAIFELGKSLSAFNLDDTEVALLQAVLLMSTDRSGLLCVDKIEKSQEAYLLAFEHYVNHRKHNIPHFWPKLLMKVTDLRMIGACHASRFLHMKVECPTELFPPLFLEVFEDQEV
The experiment can be described thus: biochemical. Conditions: TR[…] (IC50, nM), displacement of 125I-T3 (0.16 nM).
From the text: as §1, §2, §3, §4, §5, §6, §7, §8, §9

The term IC50 denotes the concentration needed to halve the response being measured. Consider `Cc1ccc(NC(=O)CC(=O)O)c2cc(C)n(Cc3ccc(O)c4ccccc34)c12` [Example 115], for which the figures for the IC50 in experiment [1] and in experiment [2] were 130 nM and 3600 nM, respectively.
In the same order, the values of `CCCc1cc(Cn2c(C)cc3c(NC(=O)C(=O)O)ccc(C)c32)ccc1O` [Example 116] are 9.2 nM and 52 nM.
For the compound `CCCc1cc(Cn2c(C)cc3c(NC(=O)CC(=O)O)ccc(C)c32)ccc1O` [Example 117], the figures for the half-inhibitory concentration (IC50) in experiment [1] and in experiment [2] were 36 nM and 640 nM, respectively.
In the same order, the values of `CCc1cc2c(NC(=O)C(=O)O)cccc2n1Cc1ccc(O)c(C(C)C)c1` [Example 118] are 91 nM and 280 nM.
On to `CC(C)c1cc(Cn2c(C(F)(F)F)cc3c(NC(=O)C(=O)O)cccc32)ccc1O` [Example 119], for which the half-maximal inhibitory concentration (IC50) in experiment [1] came out at 15 nM; in experiment [2] it was 57 nM.
`CC(C)c1cc(Cn2ccc3c(NC(=O)C(=O)O)cc(Br)cc32)ccc1O` [Example 120]: the concentration for half-maximal inhibition (IC50) is 63 nM in experiment [1] and 380 nM in experiment [2].
`CCC(C)c1cc(Cn2c(C)cc3c(NC(=O)C(=O)O)ccc(C)c32)ccc1O` (stereo not shown) [Example 122]: the IC50 in experiment [1] was 2.6 nM; in experiment [2], 24 nM.
In the same order, the values of `CCC(C)c1cc(Cn2c(C)cc3c(NC(=O)CC(=O)O)ccc(C)c32)ccc1O` (stereo not shown) [Example 123] are 9.4 nM and 170 nM.
On to `Cc1ccc(NC(=O)C(=O)O)c2cc(C)n(Cc3ccc(O)c(Cc4ccc(F)cc4)c3)c12` [Example 125], for which the concentration for half-maximal inhibition (IC50) in experiment [1] came to 8.7 nM; in experiment [2], 66 nM.
Turning to `CCOc1cc(Cn2c(C)cc3c(NC(=O)C(=O)O)ccc(C)c32)ccc1O` [Example 126], the IC50 in experiment [1] turned out to be 320 nM; in experiment [2], 1900 nM.
On to `Cc1ccc(NC(=O)CC(=O)O)c2cc(C)n(Cc3ccc(O)c(C(O)c4ccc(F)cc4)c3)c12` (stereo not shown) [Example 129, N-(1-{3-[(4-fluorophenyl)hydroxymethyl]-4-hydroxybenzyl}-2,7-dimethyl-1H-indol-4-yl)malonamic acid], for which the IC50 in experiment [1] was determined as 7.5 nM; in experiment [2] it was 260 nM.

The record behind these values is patent US20090176841A1, “NOVEL 6-5 SYSTEM BICYCLIC HE[…] ITS PHAR[…]” (Sanwa Kagaku Kenkyusho Co., Ltd., priority 2006, published 2009).
